33 compounds from patent publication US20260355184A1, “SMALL MOLECULE DEGRADERS OF HIV-1 TAT PROTEIN” (priority 2022, published 2026) can be followed below.

In one data set the test system is HIV NL4.3 strain. Kind of data set: HIV infectivity assay, reporter cell line HeLa-CD4-LTR-LacZ, β-Gal activity (Tat protein inhibition). As to conditions: for IC50: Human immunodeficiency virus 1, read-out: Infectivity IC50, HeLa-CD4-LTR-LacZ. Type of data set: cell-based, HIV-1 (NL4.3). How it is done: (§1) Next, the activity of these leads against HIV infection was evaluated using the reporter cell line HeLa-CD4-LTR-LacZ, which stably expresses the β-galactosidase (β-Gal) gene under the control of the HIV 5′ LTR. The HIV NL4.3 strain was used for these studies and β-Gal activity was measured 72 hrs post infection (FIG. 3A). Cytotoxicity assays using Cell-Titer-Glo were performed in parallel to assess cell viability (FIG. 3A). […] Their anti-HIV activity was further assessed in acute replication of Jurkat T cells with the NL4.3 strain (FIG. 3A). […] These OM10.1 cells contain a single integrated wild-type provirus, while ACH-2 cells contain a single integrated provirus with a TAR mutation C37T, defective Tat-TAR feedback loop (FIG. 3B).

A short description of data set [1]: Cytotoxicity assay, Cell-Titer-Glo, HeLa-CD4-LTR-LacZ. Conditions: human, hela-cd4-ltr-lacz cells, Infectivity CC50, HeLa-CD4-LTR-LacZ. As to the method:
as §1

Read-outs that look alike come from different tables or passages of the source.

The term IC50 denotes the midpoint of a concentration-inhibition curve. The term CC50 denotes the concentration that lowers cell viability or growth by half. The low end stands for greater toxicity to the cells, the high end for lower toxicity to the cells.

Consider `Cc1cc(C(=O)NCCCN2CCCC2=O)nn1-c1ccccc1` [GB-14], for which the half-inhibitory concentration (IC50) in the data set on HIV NL4.3 strain (analogs of TT-44881 (Table 1)) was more than 100 µM. The CC50 in data set [1] (analogs of TT-44881 (Table 1)) is more than 100 µM.
`CCCN(CCCN1CCCC1=O)C(=O)c1cc(C)n(-c2ccccc2)n1` [GB-17]: the IC50 with HIV NL4.3 strain (analogs of TT-44881 (Table 1)) is more than 100 µM. The compound further gave a CC50 in data set [1] (analogs of TT-44881 (Table 1)) of more than 100 µM.
Regarding `O=C(NCCCN1CCCC1=O)c1nn(-c2ccccc2)c2ncccc12` [compound 46752], the IC50 in the data set on HIV NL4.3 strain (analogs of TT-44881 (Table 1)) was more than 100 µM. In data set [1] (analogs of TT-44881 (Table 1)), this compound gave a CC50 of more than 100 µM.
Regarding `O=C1N(CCCn2ccnc2)CCC1(c1ccccc1)c1ccccc1` [3-73], in the data set with HIV NL4.3 strain (analogs of TT-44856 (Table 3)), the IC50 lay within 10 to 50 µM. Also, the CC50 in data set [1] (analogs of TT-44856 (Table 3)) is more than 100 µM.
With `COc1ccc(Cl)cc1NC(=O)Cn1cc(C(F)(F)F)cc(Cl)c1=O` [TT-46603], the “decrease of potency vs TT-44863” value in the data set with HIV NL4.3 strain (HeLa-CD4 cell NL4.3 infection assays) is given as ~ 5 fold. Besides, the IC50 in the data set on HIV NL4.3 strain (analogs of TT-44863 (Table 2)) was 20 to 30 µM. For the same compound, in data set [1] (analogs of TT-44863 (Table 2)), the CC50 fell in the range of 50 to 100 µM.
`CCn1nc(C(=O)NCCCN2CCCC2=O)c2c1CCC2` [compound 46932]: the half-maximal inhibitory concentration (IC50) in the data set with HIV NL4.3 strain (analogs of TT-44881 (Table 1)) was more than 100 µM. The compound also displayed a CC50 in data set [1] (analogs of TT-44881 (Table 1)) of more than 100 µM.
Consider `CCCN(CCCN1CCCC1=O)C(=O)c1nn(-c2ccccc2)c2c1CCC2` [GB-06], for which the IC50 in the data set with HIV NL4.3 strain (analogs of TT-44881 (Table 1)) lay within 5 to 30 µM. Besides, in data set [1] (analogs of TT-44881 (Table 1)), the 50% cytotoxic concentration (CC50) was more than 100 µM.
The matching figures for `O=C(NCCCN1CCCC1=O)c1nn(-c2ccccc2)c2c1CCCC2` [compound 46819]: more than 50 µM and more than 50 µM.
In the case of `O=C(NCCCN1CCCC1=O)c1nn(-c2ccccc2)cc1C1CC1` [compound 47011], in the data set on HIV NL4.3 strain (analogs of TT-44881 (Table 1)), the 50% inhibitory concentration (IC50) is more than 100 µM. In addition, the cytotoxic concentration (CC50) in data set [1] (analogs of TT-44881 (Table 1)) is more than 100 µM.
Consider `Cc1nccn1CCCNC(=O)C(C)(C)c1ccccc1Cl` [Z1119105307], for which the IC50 in the data set on HIV NL4.3 strain (analogs of TT-44856 (Table 3)) was more than 100 µM.
Take `COCCOc1ccccc1NC(=O)Cn1cc(C(F)(F)F)cc(Cl)c1=O` [compound 46624]: the 50% inhibitory concentration (IC50) with HIV NL4.3 strain (analogs of TT-44863 (Table 2)) is more than 100 µM. In data set [1] (analogs of TT-44863 (Table 2)), this compound gave a CC50 of more than 100 µM.
For `CN1CCN(CCNC(=O)C(C)(c2ccccc2)c2ccccc2)CC1` [3-51], in the data set on HIV NL4.3 strain (analogs of TT-44856 (Table 3)), the IC50 is more than 100 µM. In data set [1] (analogs of TT-44856 (Table 3)), this compound showed a CC50 of more than 100 µM.
On to `CC(NC(=O)C(c1ccccc1)c1ccccc1)c1ccc(-n2ccnc2)cc1` (stereo not drawn) [Z27307031], for which, in the data set on HIV NL4.3 strain (analogs of TT-44856 (Table 3)), the IC50 fell in the range of 1 to 20 µM. The same compound gave a CC50 in data set [1] (analogs of TT-44856 (Table 3)) of more than 100 µM.
In the case of `Cc1cc(NCCCN2CCCC2=O)n2nc(C)nc2n1` [compound 46930], the half-maximal inhibitory concentration (IC50) in the data set on HIV NL4.3 strain (analogs of TT-44881 (Table 1)) is more than 100 µM. In data set [1] (analogs of TT-44881 (Table 1)), this compound returned a cytotoxic concentration (CC50) of more than 100 µM.
`O=C(NCCCn1ccnc1)c1ccc(Oc2ccccc2)cc1` [Z56813845]: the concentration for half-maximal inhibition (IC50) in the data set with HIV NL4.3 strain (analogs of TT-44856 (Table 3)) is more than 100 µM.
The same measure, in the same setting: the result for `O=C(Cc1ccc2c(c1)CCC2)NCCCn1ccnc1` [Z51979499] reads more than 100 µM; that for `Cc1ccc(CC(=O)NCCCn2ccnc2)cc1` [Z100612606], more than 100 µM.
`COc1ccc(C(F)(F)F)cc1NC(=O)C(C)n1cc(C(F)(F)F)cc(-c2ccccc2)c1=O` (stereo not drawn): the IC50 in the data set with HIV NL4.3 strain (analogs of TT-44863 (Table 2)) is more than 100 µM. Besides, in data set [1] (analogs of TT-44863 (Table 2)), the CC50 is more than 100 µM.
In the case of `O=C(NCCCN1CCCC1=O)c1nc2ccccc2[nH]c1=O` [compound 46931], in the data set on HIV NL4.3 strain (analogs of TT-44881 (Table 1)), the 50% inhibitory concentration (IC50) was 10 to 30 µM. This compound gave a CC50 in data set [1] (analogs of TT-44881 (Table 1)) of more than 100 µM.
In the case of `O=C(O)COCCOCCOc1ccc(C(F)(F)F)cc1NC(=O)Cn1cc(C(F)(F)F)cc(Cl)c1=O` [compound 48], the IC50 in the data set with HIV NL4.3 strain (analogs of TT-44863 (Table 2)) was more than 100 µM. For the same compound, the CC50 in data set [1] (analogs of TT-44863 (Table 2)) is more than 100 µM.
In the case of `COc1cc(C(F)(F)F)ccc1NC(=O)Cn1cccc(Cl)c1=O` [compound 47171], the half-maximal inhibitory concentration (IC50) in the data set on HIV NL4.3 strain (analogs of TT-44863 (Table 2)) is more than 100 µM. Moreover, in data set [1] (analogs of TT-44863 (Table 2)), the half-maximal cytotoxic concentration (CC50) was more than 100 µM.
On to `O=C(NCCCN1CCCC1=O)c1nn(-c2ccccc2)c2c1CCCCC2` [GB-03], for which the half-inhibitory concentration (IC50) with HIV NL4.3 strain (analogs of TT-44881 (Table 1)) was more than 100 µM. Moreover, in data set [1] (analogs of TT-44881 (Table 1)), the half-maximal cytotoxic concentration (CC50) is more than 100 µM.
Consider `O=C(NCCCn1cnc2ccccc21)C(c1ccccc1)(c1ccccc1)c1ccccc1` [3-68], for which, in the data set on HIV NL4.3 strain (analogs of TT-44856 (Table 3)), the IC50 was in the range of 10 to 30 µM. In data set [1] (analogs of TT-44856 (Table 3)), this compound returned a cytotoxic concentration (CC50) of 20 to 50 µM.
For `CCCC(=O)NC(C(=O)NCCCn1ccnc1)(c1ccccc1)c1ccccc1` [3-60], in that order: more than 100 µM and more than 100 µM.
As for `COc1ccc(OC(F)(F)F)cc1NC(=O)Cn1cc(C(F)(F)F)cc(Cl)c1=O` [compound 45], the IC50 in the data set on HIV NL4.3 strain (analogs of TT-44863 (Table 2)) fell in the range of 1 to 10 µM. In data set [1] (analogs of TT-44863 (Table 2)), the half-maximal cytotoxic concentration (CC50) was more than 100 µM.
For the compound `CC1(C(=O)NCCCn2ccnc2)c2ccccc2-c2ccccc21` [3-50], in the data set with HIV NL4.3 strain (analogs of TT-44856 (Table 3)), the IC50 lay in the range of 1 to 20 µM. This compound yielded a cytotoxic concentration (CC50) in data set [1] (analogs of TT-44856 (Table 3)) of more than 100 µM.
Consider `COc1ccc(C(F)(F)F)cc1-c1noc(Cn2cc(C(F)(F)F)ccc2=O)n1` [compound 47199], for which the IC50 in the data set on HIV NL4.3 strain (analogs of TT-44863 (Table 2)) is more than 50 µM. Moreover, the cytotoxic concentration (CC50) in data set [1] (analogs of TT-44863 (Table 2)) is more than 50 µM.
For the compound `Cc1cc(C(=O)N(C)CCCN2CCCC2=O)nn1-c1ccccc1` [GB-15], the half-maximal inhibitory concentration (IC50) with HIV NL4.3 strain (analogs of TT-44881 (Table 1)) is more than 100 µM. The compound also came in with a CC50 in data set [1] (analogs of TT-44881 (Table 1)) of more than 100 µM.
Turning to `COc1ccc(C(F)(F)F)cc1CNC(=O)Cn1cc(C)cc(Cl)c1=O` [compound 46957], the half-maximal inhibitory concentration (IC50) in the data set with HIV NL4.3 strain (analogs of TT-44863 (Table 2)) is more than 50 µM. The CC50 in data set [1] (analogs of TT-44863 (Table 2)) is more than 50 µM.
Consider `O=C(NCCCn1ccnc1)c1cc(Cl)nc2ccccc12` [3-39], for which the IC50 with HIV NL4.3 strain (analogs of TT-44856 (Table 3)) was more than 100 µM. Besides, the cytotoxic concentration (CC50) in data set [1] (analogs of TT-44856 (Table 3)) was more than 100 µM.
As for `O=C(NCCCn1ccnc1)C(c1ccccc1)(c1ccccc1)c1ccccc1` [3-58], in the data set with HIV NL4.3 strain (analogs of TT-44856 (Table 3)), the IC50 was 1 to 20 µM. For the same compound, in data set [1] (analogs of TT-44856 (Table 3)), the CC50 is more than 100 µM.
`N#Cc1ccc(NC(=O)c2cn(-c3ccccc3)c3ccccc23)cc1` [compound 41905]: the IC50 with HIV NL4.3 strain (analogs of TT-44881 (Table 1)) lay in the range of 1 to 10 µM. The same compound returned a 50% cytotoxic concentration (CC50) in data set [1] (analogs of TT-44881 (Table 1)) of 1 to 10 µM.
Turning to `Cc1nccn1CCCNC(=O)C(c1ccccc1)(c1ccccc1)c1ccccc1` [3-67], in the data set with HIV NL4.3 strain (analogs of TT-44856 (Table 3)), the IC50 was 1 to 20 µM. In data set [1] (analogs of TT-44856 (Table 3)), this compound registered a half-maximal cytotoxic concentration (CC50) of 50 to 100 µM.
